Laboratory results from patent publication US5068325A, “4,5,7,8-tetrahydro-6H-thiazolo[5,4-d]azepines, their preparation and their use as pharmaceutical compositions” (priority 1988, dated 1991).
Where two headings read alike, the source gives them in different places.

How the values were obtained:
[1] = target: T1, serotonin-2(5-HT2)-receptors (Rattus norvegicus, UniProt P14842); experiment: affinity for serotonin-2 (5-HT2) receptors by displacement experiments with [3H]-spiperone (rat frontal cortex); format: binding
T1 construct: The frontal cortex was dissected out and placed in ice cold 0.32 M saccharose solution; from tissue; host or cells: rat frontal cortex homogenate (Chbb:Thom strain)
Description: (§1) Specific binding is obtained from total binding minus non-specific binding.
A male rat (Chbb:Thom strain, about 200 g) was decapitated. The brain was removed. The frontal cortex was dissected out and placed in ice cold 0.32 M saccharose solution; its moist weight was determined. It was homogenised in 10 times the volume (0.32 M) of saccharose solution for 1 minute at 800 rpm in a Potter S (made by Braun of Melsungen). The homogenised material was centrifuged for 10 minutes at 1000×g (=3,000 rpm with a rotor 8×38 ml) in a refrigerated centrifuge. The supernatant was decanted off and homogenised (Polytron, position 5, 1 minute); the sediment was discarded. 5 ml (=0.5 g moist weight) of the tissue suspension thus obtained were made up to 40 ml with buffer (50 mm tris-HCl; pH=7.7 at ambient temperature).
0.8 ml of the buffered homogenised tissue (=10 mg moist weight) were incubated with 0.1 ml of a solution of [^3 H]-spiperone (about 0.2 nmol/1 final concentration) and with 0.1 ml of a solution of the test substance (increasing concentration) for 15 minutes at 37° C. (triple measurement). Incubation was stopped by rapid filtering through a Whatman GF/B filter; rinsing was carried out 3 times, each time with 5 ml of ice cold buffer within a maximum of 10 seconds (Filter Prep Messrs. Ismatec). The radioactivity of the filters was determined by liquid scintillation measurement.
The specific binding is obtained from the total binding minus the non-specific binding. The averages of the triple measurements are entered in a system of coordinates as in 1.3. The IC50 value is the concentration which inhibits the specific binding of [^3 H]-spiperone by 50%.

dopamine D2-receptors = dopamine D2-receptors (Rattus norvegicus, UniProt P61169); experiment: affinity for dopamine D2-receptors by displacement experiments with [3H]-spiperone (rat striatum membranes); format: binding; conditions: for Ki: [3H]-spiperone, high-affinity form of the dopamine receptor; for α2-IC50 / D2-Ki: relative affinity for dopamine-D2 receptors compared with α2-adrenoceptors, the higher, the higher the D2/α2 selectivity
Description: 1Determining the affinity for dopamine D2-receptors by displacement experiments with [^3 H]-spiperone (Modified Method of W. Billard et al., Life Sci. 35, 1885 (1984) and D. J. de Vries and P. M. Beart, Eur. J. Pharmacol. 109, 417 (1985))
(§2) Male rats (of the Chbb:Thom strain weighing about 200 g) were killed by a blow to the back of the neck. The brains were removed and dissected on ice. The striata were dissected out, weighed and homogenised in 25 volumes of tris buffer (50 mM tris-HCl, 1 mM EDTA, 5 mM MgCl2 and 1 mM ascorbic acid) for 30 seconds in an Ultra-Turrax at maximum speed, followed by 10 cycles in a Potter-Elvehjem at 1400 rpm. The pellet obtained after centrifuging at 50,000×g at 4° C. for 15 minutes was again taken up in 25 ml of tris buffer and centrifuged under the above conditions. The supernatant was discarded and the pellet obtained was incubated in 25 ml of tris buffer at 37° C. for 30 minutes and then centrifuged again at 50,000×g at 4° C. for 15 minutes. Finally, the pellet obtained was mixed with tris buffer to obtain a homogenate dilution of 1:500 (based on the weight of the striata).
1 ml aliquots of the membrane preparation were incubated with 1 ml of a solution of 0.25 nM [^3 H]-spiperone ([…], Messrs. DuPont NEN) and at increasing concentrations of the test substance (10^-11 to 10^-4 M) at ambient temperature for one hour. Incubation was ended by the addition of 5 ml of ice cold tris buffer and filtration using Whatman GF/B filters. The filters were washed twice, each time with 5 ml of ice cold buffer. The radioactivity of the filters was determined by liquid scintillation measurement in Instagel^(R) (Messrs. Canberra Packard). Non-specific binding was determined in the presence of 10^-5 M haloperidol (Sigma Chemical Co.).
(§3) Displacement curves were obtained from the data using the TOPFIT programming package (G. Heinzel in "Pharmacokinetics During Drug Development: Data Analysis and Evaluation Techniques", G. Bozler and J. M. van Rossum Eds., G. Fischer Verlag, Stuttgart 1982, 207).

alpha-2 receptors = target: T2, alpha-2 receptors (Rattus norvegicus, UniProt P22909); experiment: affinity for alpha-2 receptors by displacement experiments with [3H]-clonidine (rat cortex membranes); format: binding; conditions: read-out: α2-IC50
T2 sequence (P22909 1-465): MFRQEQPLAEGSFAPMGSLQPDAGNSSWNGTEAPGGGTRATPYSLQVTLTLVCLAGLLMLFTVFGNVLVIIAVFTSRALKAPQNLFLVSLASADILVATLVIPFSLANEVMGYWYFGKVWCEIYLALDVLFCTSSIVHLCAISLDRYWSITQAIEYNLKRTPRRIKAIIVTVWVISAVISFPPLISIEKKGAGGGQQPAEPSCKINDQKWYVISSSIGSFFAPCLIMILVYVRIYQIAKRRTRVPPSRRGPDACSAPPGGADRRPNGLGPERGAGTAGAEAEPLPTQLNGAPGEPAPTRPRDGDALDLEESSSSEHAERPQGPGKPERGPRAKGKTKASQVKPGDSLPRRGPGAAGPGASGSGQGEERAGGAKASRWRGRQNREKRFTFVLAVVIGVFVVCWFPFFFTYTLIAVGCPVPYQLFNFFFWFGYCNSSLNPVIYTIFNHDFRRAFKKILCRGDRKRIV

[2] = target: T3, serotonin-1A(5-HT1A) receptors (Rattus norvegicus, UniProt P19327); experiment: affinity for serotonin-1A (5-HT1A) receptors by displacement experiments with [3H]-8-OH-DPAT (rat frontal cortex); format: binding
T3 construct: The frontal cortex was dissected out; from tissue; host or cells: rat frontal cortex homogenate (Chbb:Thom strain)
T3 sequence (P19327 1-422): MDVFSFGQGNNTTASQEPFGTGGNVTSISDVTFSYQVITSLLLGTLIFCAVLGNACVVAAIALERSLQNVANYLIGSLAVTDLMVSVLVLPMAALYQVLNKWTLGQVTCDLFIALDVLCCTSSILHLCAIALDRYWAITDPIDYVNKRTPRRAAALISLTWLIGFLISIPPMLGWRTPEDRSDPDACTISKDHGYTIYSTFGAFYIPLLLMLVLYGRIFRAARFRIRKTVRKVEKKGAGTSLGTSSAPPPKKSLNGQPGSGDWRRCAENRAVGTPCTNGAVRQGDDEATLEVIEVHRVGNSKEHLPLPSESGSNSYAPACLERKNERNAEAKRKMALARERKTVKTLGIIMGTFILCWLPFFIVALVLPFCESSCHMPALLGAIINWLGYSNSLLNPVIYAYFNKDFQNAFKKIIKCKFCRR
Description: 3. […] (Method of S. J. Peroutka, J. Neurochem. 47, 529 (1986), modified according to H. Gozlan et al., J. Receptor Research 7. 195 (1987))
A male rat (Chbb:Thom strain weighing about 200 g) was decapitated. The brain was removed and placed in ice-cold buffer (50 mmol/1 tris-HCl plus hydrochloric acid ad pH =7.4 at ambient temperature). The frontal cortex was dissected out; its moist weight was determined. It was homogenised in 40 times its volume of buffer (Polytron, position 6, 10 seconds), then centrifuged for 20 minutes at 45,000×g in the refrigerated centrifuge. The pellet was washed in 100 times its volume of buffer and centrifuged again as described above. The resulting pellet was resuspended in 40 times its volume of buffer and pre-incubated for 10 minutes at 37° C. Sixty times the volume of buffer were added and centrifuging was carried out as above. The resulting pellet was washed with 100 times the volume of buffer and centrifuged as above. The pellet was resuspended in buffer (0.8 ml/10 mg) and briefly homogenised in the Polytron. This homogenised tissue was cooled in ice until ready for incubation.
Incubation was stopped by rapid filtering through Whatman GF/B filters; rinsing was carried out twice, each time with 5 ml of ice cold buffer (Filter Prep, Messrs. Ismatec). The radioactivity of the filters was determined by liquid scintillation measurement.
as §1

[3] = tested on: hypersensitive dopamine receptor; experiment: motility triggering in the mouse treated 24 hours earlier with reserpine; format: in vivo; conditions: Mus musculus, sc; reserpine-treated mice, s.c.; read-out: DLi50 (dosage resulting in 50 running pulses every 5 minutes)
Description: This test determines predominantly agonistic effects on the hypersensitive dopamine receptor.
Male mice are treated 24 hours before the experiment with 5 mg/kg i.p. reserpine. The animals are kept at 25°-30° C. and treated three times with 2 ml of a 5% glucose solution in tyrode s.c. (the first time when the reserpine is given, the second time in the evening of the pre-treatment day and the third time on the morning of the test day).
[…] (The injection volume is usually 0.1 ml/10 g of body weight). 30 minutes later the groups of animals are placed in the observation cages (measuring 42 x 24 x 8 cm) and fitted with an infrared lightbeam in order to measure their activity. The value measured is the frequency with which a group of 6 mice pass through the infra-red beam within 5 minutes ("running pulses/5 minutes"; mean at n=3; mean±s.e.m. at n=6).
3 to 6 groups are tested for each substance.

dopamine D1-receptors = target: T4, dopamine D1-receptors (Rattus norvegicus, UniProt P18901); experiment: affinity for dopamine D1-receptors by displacement experiments with [3H]-Sch 23390; format: binding
T4 construct: The striata were dissected out, weighed and homogenised in 25 volumes of tris buffer; from tissue; host or cells: rat striatum membranes (Chbb:Thom strain), prepared as for the D2 assay
Description: as §2, §3
7. Determining the affinity for dopamine D1-receptors by displacement experiments with [^3 H1-Sch 23390
The membrane preparation and data analysis were carried out as described for determining the affinity for dopamine D2 - receptors.
1 ml aliquots of the membrane preparation were incubated for 1 hour at ambient temperature with 1 ml of a solution of 0.25 nM [^3 H]-Sch 23390 (2.44 TBq/mmol, Messrs. DuPont NEN) and with increasing concentrations of the test substance (10^-11 to 10^-4 M). Incubation was ended by the addition of 5 ml of ice cold tris buffer and filtration through Whatman GF/B filters. The filters were washed twice, each time with 5 ml of ice cold buffer. The radioactivity of the filters was determined by liquid scintillation measurement in Instagel(R) (Messrs. Canberra Packard).
The non-specific binding was determined in the presence of 10^-6 M (-)-butaclamol (Research Biochemicals Inc.).

[4] = [3H]-8-OH-DPAT, rat frontal cortex, read-out: 5-HT1A-Ki

T4 sequence (P18901 whole entry): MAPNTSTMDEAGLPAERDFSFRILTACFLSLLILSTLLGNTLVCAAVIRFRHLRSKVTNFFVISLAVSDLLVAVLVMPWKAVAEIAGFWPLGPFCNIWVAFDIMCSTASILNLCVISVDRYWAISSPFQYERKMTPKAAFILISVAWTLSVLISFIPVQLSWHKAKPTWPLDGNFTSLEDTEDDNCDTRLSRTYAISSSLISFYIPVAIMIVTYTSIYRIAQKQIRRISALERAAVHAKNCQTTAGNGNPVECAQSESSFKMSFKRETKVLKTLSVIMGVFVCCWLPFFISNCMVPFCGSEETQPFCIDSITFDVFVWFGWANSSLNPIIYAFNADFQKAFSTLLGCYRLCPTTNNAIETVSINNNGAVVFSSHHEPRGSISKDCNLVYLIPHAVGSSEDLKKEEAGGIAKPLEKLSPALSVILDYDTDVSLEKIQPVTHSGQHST
Sequence of dopamine D2-receptors (P61169 whole entry): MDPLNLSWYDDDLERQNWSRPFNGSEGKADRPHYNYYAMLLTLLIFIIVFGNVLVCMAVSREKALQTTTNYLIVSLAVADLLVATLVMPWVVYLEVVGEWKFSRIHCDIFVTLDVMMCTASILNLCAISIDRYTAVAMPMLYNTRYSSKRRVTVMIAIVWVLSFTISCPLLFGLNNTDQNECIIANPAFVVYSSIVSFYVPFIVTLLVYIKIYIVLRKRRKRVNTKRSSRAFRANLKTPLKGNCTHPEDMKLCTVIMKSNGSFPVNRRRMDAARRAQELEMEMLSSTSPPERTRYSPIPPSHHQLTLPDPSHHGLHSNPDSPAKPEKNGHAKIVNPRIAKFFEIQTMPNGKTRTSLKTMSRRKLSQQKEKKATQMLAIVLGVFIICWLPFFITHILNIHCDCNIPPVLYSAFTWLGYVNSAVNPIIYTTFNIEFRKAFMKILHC
T1 sequence (P14842 whole entry): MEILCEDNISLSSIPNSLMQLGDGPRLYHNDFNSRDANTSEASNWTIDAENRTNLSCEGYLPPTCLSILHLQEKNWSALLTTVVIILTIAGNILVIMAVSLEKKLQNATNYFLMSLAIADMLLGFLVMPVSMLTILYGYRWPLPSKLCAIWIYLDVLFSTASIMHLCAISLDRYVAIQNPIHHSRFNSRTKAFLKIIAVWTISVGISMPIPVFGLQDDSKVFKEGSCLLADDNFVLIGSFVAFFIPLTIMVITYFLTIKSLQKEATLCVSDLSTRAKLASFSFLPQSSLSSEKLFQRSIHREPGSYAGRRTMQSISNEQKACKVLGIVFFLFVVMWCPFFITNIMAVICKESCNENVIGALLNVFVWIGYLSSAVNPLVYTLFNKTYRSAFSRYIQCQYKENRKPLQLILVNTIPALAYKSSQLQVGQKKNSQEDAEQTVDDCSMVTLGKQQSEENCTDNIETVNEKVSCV

Row | Compound | Ki [1] [µM] | Ki (dopamine D2-receptors) [µM] | α2-IC50 / D2-Ki (dopamine D2-receptors) | IC50 (alpha-2 receptors) [µM] | Ki [2, 4] [µM] | further results
1 | CCCN(CCC)C1CCc2cccc(O)c2C1 (centres unmarked) [Example 8-OH-DPAT, 8-OH-DPAT, reference compound] | 2.88 |  |  |  |  | 
2 | Nc1nc2c(s1)CCN(C/C=C\c1ccccc1)CC2 [Example 12b, (Z)-2-Amino-6-(3-phenyl™2-propen-I-yl)-4,5,7,8-tetrahydro-6H-thiazolo[5,4-d]azepine] | 0.86 | 0.0044 | 450 | 2 | 53 | 
3 | Nc1nc2c(s1)CCN(CC=Cc1ccc(-c3ccccc3)cc1)CC2 [Example 4w, 2-Amino-6-(3-(4-biphenyl)allyl)-4,5,7,8-tetrahydro-6H-thiazolo[5,4-d]azepine] | 1.03 | 0.003 | 733 | 2.2 | 36.3 | 
4 | Nc1nc2c(s1)CCN(CC=Cc1cccnc1)CC2 [Example 11b, 2-Amino-6-(3-(3-pyridyl)allyl)-4,5,7,8-tetrahydro-6H-thiazolo[5,4-d]azepine] |  |  |  |  |  | ED (50 running pulses/5 min) [3]: 0.29 mg/kg
5 | Nc1nc2c(s1)CCN(CC=Cc1ccccc1)CC2 [Example 1, 2-Amino-6-cinnamyl-4,5,7,8-tetrahydro-6H-thiazolo-[5,4-d]azepine] | 0.356 |  |  |  | 4.34 | 
6 | Nc1nc2c(s1)CCN(CC1=Cc3ccccc3CC1)CC2 [Example 1b, 2-Amino-6-(1,2-dihydronaphthalen-3-yl-methyl)-4,5,7,8-tetrahydro-6H-thiazolo[5,4-d]azepine] |  |  |  |  |  | Ki (dopamine D1-receptors): 0.8 µM
7 | O=C(c1ccc(F)cc1)C1CCN(CCn2c(=O)[nH]c3ccccc3c2=O)CC1 [Ketanserine, reference compound] |  |  |  |  |  | Ki [2]: 2.83 µM
8 | Nc1nc2c(s1)CCN(CC=Cc1ccco1)CC2 [Example 8, 2-Amino-6-(3-(2-furyl)allyl)-4,5,7,8-tetrahydro-6H-thiazolo[5,4-d]azepine] |  |  |  |  |  | ED (50 running pulses/5 min) [3]: 0.34 mg/kg
9 | Nc1nc2c(s1)CCN(CC#Cc1ccccc1)CC2 [Example 4d, 2-Amino-6-(3-phenyl-2-propyn-1-yl)-4,5,7,8-tetrahydro-6H-thiazolo[5,4-d]azepine] | 1.8 | 0.01 | 89 | 0.89 | 14.2 | 
10 | Nc1nc2c(s1)CCN(CC1CC1c1ccccc1)CC2 (centres unmarked) [Example 17, 2-Amino-6-(2-phenyl-1-cyclopropyl-methyl)-4,5,7,8-tetrahydro-6H-thiazolo[5,4-d]azepine] | 0.339 |  |  |  | 1.06 | 
11 | Nc1nc2c(s1)CCN(CCc1ccccc1)CC2 [Compound C, 2amino-6-(2phenylethyl)-4,5,7,8-tetrahydro-6H-thiazolo[5,4d]azepine, reference compound] |  | 0.41 | 12.4 | 5.1 |  | Ki (dopamine D1-receptors): 11 µM
12 | Nc1nc2c(s1)CCN(CCC=Cc1ccccc1)CC2 [Example 8k, 2-Amino-6-(4-phenyl-3-buten-1-yl)-4,5,7,8-tetrahydro-6H-thiazolo[5,4-d]azepine] |  |  |  |  |  | Ki (dopamine D1-receptors): 0.51 µM
13 | Nc1nc2c(s1)CCN(CC=Cc1ccc3ccccc3c1)CC2 [Example 4u, 2-Amino-6-(3-(2-naphthyl)allyl)-4,5,7,8-tetrahydro-6H-thiazolo[5,4-d]azepine] | 0.35 | 0.0069 | 318 | 2.2 | 14 | 
14 | Nc1nc2c(s1)CCN(CC=Cc1ccccc1OCc1ccccc1)CC2 [Example 4x, 2-Amino-6-(3-(2-benzyloxy-phenyl)allyl)-4,5,7,8-tetrahydro-6H-thiazolo[5,4-d]azepine] |  |  |  |  |  | Ki (dopamine D1-receptors): 0.4 µM
